Data set [1] has as its system HELA cells (Acc57). Description: Cytotoxicity assay (MTT reduction), HELA cells. It is filed as cell-based. The settings on record: Hela cells. As to the method: The cytotoxicity of the peptides to HELA cells (Acc57) and COS-7 cells (CRL-1651) was determined using the MTT reduction assay [see ref. 2 and 3, below]. Briefly the method was as follows: HELA cells and COS-7 cells were seeded at 7.0×10^3 and, respectively, 4.5×10^3 cells per well and grown in 96-well microtiter plates for 24 hours at 37° C. at 5% CO2. At this point, time zero (Tz) was determined by MTT reduction (see below). The supernatant of the remaining wells was discarded, and fresh medium and the peptides in serial dilutions of 12.5, 25 and 50 μM were pipetted into the wells. Each peptide concentration was assayed in triplicate. Incubation of the cells was continued for 48 hours at 37° C. at 5% CO2. Wells were then washed once with phosphate buffered saline (PBS) and subsequently 100 μl MTT reagent (0.5 mg/ml in medium RPMI1640 and, respectively, DMEM) were added to the wells. This was incubated at 37° C. for 2 hours and subsequently the medium was aspirated and 100 μl isopropanol were added to each well. The absorbance at 595 nm of the solubilized product was measured (OD595peptide). For each concentration averages were calculated from triplicates. The percentage of growth was calculated as follows: (OD595peptide-OD595Tz-OD595Empty well)/(OD595Tz-OD595Empty well)×100% and was plotted for each peptide concentration.
The LC 50 values (Lethal Concentration, defined as the concentration that kills 50% of the cells) were determined for each peptide by using the trend line function of EXCEL (Microsoft Office 2000) for the concentrations (50, 25, 12.5 and 0 μM), the corresponding growth percentages and the value −50, (=TREND(C50:C0,%50:%0,−50)).
The GI 50 (Growth Inhibition) concentrations were calculated for each peptide by using a trend line function for the concentrations (50, 25, 12.5 and 0 μg/ml), the corresponding percentages and the value 50, (=TREND (C50:C0,%50:%0,50).
(In general: Formazan colour is commonly taken as a measure of viable cells.)

Data set [2] addresses T1, Elastase from human neutrophils (Homo sapiens, UniProt P08246).
T1 sequence (P08246 30-267): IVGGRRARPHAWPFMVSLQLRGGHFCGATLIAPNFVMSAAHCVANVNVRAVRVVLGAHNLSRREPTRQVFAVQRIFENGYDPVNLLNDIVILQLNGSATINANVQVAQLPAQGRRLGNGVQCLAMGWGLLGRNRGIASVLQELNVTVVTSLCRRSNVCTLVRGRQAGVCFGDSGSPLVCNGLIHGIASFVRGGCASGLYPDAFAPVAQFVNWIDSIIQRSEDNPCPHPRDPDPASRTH
In words: Enzymatic assay, elastase. The settings on record: Elastase IC50.

For data set [3], the target named is Chymotrypsin, from human pancreas (Homo sapiens, UniProt P17538). In words: Enzymatic assay, chymotrypsin.
Sequence of Chymotrypsin, from human pancreas (P17538 19-263): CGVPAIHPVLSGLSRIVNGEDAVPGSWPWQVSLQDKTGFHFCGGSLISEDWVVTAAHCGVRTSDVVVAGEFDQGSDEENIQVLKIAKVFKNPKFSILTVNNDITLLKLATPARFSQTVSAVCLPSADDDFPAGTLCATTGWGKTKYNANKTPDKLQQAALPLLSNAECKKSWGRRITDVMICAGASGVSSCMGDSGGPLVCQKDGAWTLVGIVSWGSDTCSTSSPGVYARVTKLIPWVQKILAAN
The test system of data set [4] is Tryptase, from human lung. In words: Enzymatic assay, tryptase. The settings on record: at 100 μM.

These results are taken from US8658604B2, “Template-fixed beta-hairpin peptidomimetics with protease inhibitory activity” (Polyphor Ltd, priority 2005, dated 2014).

Where a SMILES comes first, the peptide text is derived from it.

`CCCC[C@@H]1NC(=O)[C@@H]2CCCN2C(=O)[C@H]2CCCCN2C(=O)[C@H](Cc2ccc(O)cc2)NC(=O)[C@@H]2CSSC[C@H](NC1=O)C(=O)N[C@@H]([C@@H](C)O)C(=O)N[C@@H](C)C(=O)N[C@@H](CO)C(=O)N[C@@H]([C@@H](C)CC)C(=O)N1CCC[C@H]1C(=O)N1CCC[C@H]1C(=O)N[C@@H](CCC(N)=O)C(=O)N2` [Ex. 120] (HELM PEPTIDE1{A.S.I.P.P.Q.C.Y.[O=C([C@H]1CCCCN1[*:1])[*:2]].P.[Nle].C.T}$PEPTIDE1,PEPTIDE1,7:R3-12:R3|PEPTIDE1,PEPTIDE1,1:R1-13:R2$$$V2.0) came in with a Cytotoxicity LC50/GI50 Hela cells in data set [1] of 38 µM. Also, in data set [2], the IC50 – broadly, the point on the concentration scale where inhibition reaches its midpoint – worked out at 0.029 µM.
`CCCCCC[C@@H]1NC(=O)[C@H](CO)NC(=O)[C@H](C)NC(=O)[C@H]([C@@H](C)O)NC(=O)[C@@H]2CSSC[C@H](NC(=O)[C@H](CCC(N)=O)NC(=O)[C@@H]3CCCN3C(=O)[C@@H]3CCCN3C1=O)C(=O)N[C@@H](Cc1ccc(O)cc1)C(=O)N1CCC[C@@H]1C(=O)N1CCC[C@H]1C(=O)N[C@@H](CCCC)C(=O)N2` [Ex. 80] (HELM PEPTIDE1{[Nle].C.T.A.S.[CCCCCC[C@H](N[*:1])C(=O)[*:2]].P.P.Q.C.Y.[dP].P}$PEPTIDE1,PEPTIDE1,2:R3-10:R3|PEPTIDE1,PEPTIDE1,1:R1-13:R2$$$V2.0) registered a Cytotoxicity LC50/GI50 Hela cells in data set [1] of 12 µM. In addition, the IC50 in data set [3] is more than 20 µM; in data set [2] it was 0.035 µM.
The matching figures for `CCCC[C@@H]1NC(=O)[C@@H]2CCCN2C(=O)[C@@H](CC(=O)O)NC(=O)[C@H](Cc2ccc(O)cc2)NC(=O)[C@@H]2CSSC[C@H](NC1=O)C(=O)N[C@@H]([C@@H](C)O)C(=O)N[C@@H](C)C(=O)N[C@@H](CO)C(=O)N[C@@H]([C@@H](C)CC)C(=O)N1CCC[C@H]1C(=O)N1CCC[C@H]1C(=O)N[C@@H](CCC(N)=O)C(=O)N2` [Ex. 115] (HELM PEPTIDE1{[Nle].C.T.A.S.I.P.P.Q.C.Y.[dD].P}$PEPTIDE1,PEPTIDE1,2:R3-10:R3|PEPTIDE1,PEPTIDE1,1:R1-13:R2$$$V2.0): 51 µM, 27.8 µM and 0.038 µM.
As to `CCCC[C@@H]1NC(=O)[C@@H]2CCCN2C(=O)[C@H]2CCCN2C(=O)[C@H](CCCNC(=N)N)NC(=O)[C@@H]2CSSC[C@H](NC1=O)C(=O)N[C@@H]([C@@H](C)O)C(=O)N[C@@H](C)C(=O)N[C@@H](CO)C(=O)N[C@@H]([C@@H](C)CC)C(=O)N1CCC[C@H]1C(=O)N1CCC[C@H]1C(=O)N[C@@H](CCC(N)=O)C(=O)N2` [Ex. 92] (HELM PEPTIDE1{[Nle].C.T.A.S.I.P.P.Q.C.R.[dP].P}$PEPTIDE1,PEPTIDE1,2:R3-10:R3|PEPTIDE1,PEPTIDE1,1:R1-13:R2$$$V2.0), the Cytotoxicity LC50/GI50 Hela cells in data set [1] was determined as 93 µM. Moreover, the midpoint of inhibition in data set [2], the IC50, lay at 0.043 µM.
In data set [1], `CCCC[C@@H]1NC(=O)[C@@H]2CCCN2C(=O)[C@H]2CCCN2C(=O)[C@H](CO)NC(=O)[C@@H]2CSSC[C@H](NC1=O)C(=O)N[C@@H]([C@@H](C)O)C(=O)N[C@@H](C)C(=O)N[C@@H](CO)C(=O)N[C@@H]([C@@H](C)CC)C(=O)N1CCC[C@H]1C(=O)N1CCC[C@H]1C(=O)N[C@@H](CCC(N)=O)C(=O)N2` [Ex. 93] (HELM PEPTIDE1{[Nle].C.T.A.S.I.P.P.Q.C.S.[dP].P}$PEPTIDE1,PEPTIDE1,2:R3-10:R3|PEPTIDE1,PEPTIDE1,1:R1-13:R2$$$V2.0) gave a Cytotoxicity LC50/GI50 Hela cells of 100 µM. Moreover, the “Tryptase at 100 μM %” value in data set [4] stood at 5.6%. This compound also registered an IC50 in data set [2] of 0.041 µM.
With `CCCC[C@@H]1NC(=O)[C@@H]2CCCN2C(=O)[C@H]2CCCN2C(=O)[C@H](Cc2ccc(O)cc2)NC(=O)[C@@H]2CSSC[C@H](NC1=O)C(=O)N[C@@H]([C@@H](C)O)C(=O)N[C@@H](C)C(=O)N[C@@H](CO)C(=O)N[C@@H]([C@@H](C)CC)C(=O)N1CCC[C@H]1C(=O)N1CCC[C@H]1C(=O)N[C@@H](Cc1ccccc1)C(=O)N2` [Ex. 89] (HELM PEPTIDE1{[Nle].C.T.A.S.I.P.P.F.C.Y.[dP].P}$PEPTIDE1,PEPTIDE1,2:R3-10:R3|PEPTIDE1,PEPTIDE1,1:R1-13:R2$$$V2.0), the Cytotoxicity LC50/GI50 Hela cells in data set [1] was 51 µM. The IC50 in data set [2] stood at 0.043 µM.
The matching figures for `CCCC[C@@H]1NC(=O)[C@@H]2CCCN2C(=O)[C@@H](CCCNC(=N)N)NC(=O)[C@H](Cc2ccc(O)cc2)NC(=O)[C@@H]2CSSC[C@H](NC1=O)C(=O)N[C@@H]([C@@H](C)O)C(=O)N[C@@H](C)C(=O)N[C@@H](CO)C(=O)N[C@@H]([C@@H](C)CC)C(=O)N1CCC[C@H]1C(=O)N1CCC[C@H]1C(=O)N[C@@H](CCC(N)=O)C(=O)N2` [Ex. 117] (HELM PEPTIDE1{A.S.I.P.P.Q.C.Y.[dR].P.[Nle].C.T}$PEPTIDE1,PEPTIDE1,7:R3-12:R3|PEPTIDE1,PEPTIDE1,1:R1-13:R2$$$V2.0): 29 µM and 0.033 µM.
The matching figures for `CCCC[C@@H]1NC(=O)[C@H](CO)NC(=O)[C@H]2CCCN2C(=O)[C@H](Cc2ccc(O)cc2)NC(=O)[C@@H]2CSSC[C@H](NC1=O)C(=O)N[C@@H]([C@@H](C)O)C(=O)N[C@@H](C)C(=O)N[C@@H](CO)C(=O)N[C@@H]([C@@H](C)CC)C(=O)N1CCC[C@H]1C(=O)N1CCC[C@H]1C(=O)N[C@@H](CCC(N)=O)C(=O)N2` [Ex. 124] (HELM PEPTIDE1{A.S.I.P.P.Q.C.Y.[dP].S.[Nle].C.T}$PEPTIDE1,PEPTIDE1,7:R3-12:R3|PEPTIDE1,PEPTIDE1,1:R1-13:R2$$$V2.0): 40 µM and 0.04 µM.
`CC[C@H](C)[C@@H]1NC(=O)[C@H](CO)NC(=O)[C@H](C)NC(=O)[C@H]([C@@H](C)O)NC(=O)[C@@H]2CSSC[C@H](NC(=O)[C@H](CCC(N)=O)NC(=O)[C@@H]3CCCN3C(=O)[C@@H]3CCCN3C1=O)C(=O)N[C@@H](Cc1ccc(O)cc1)C(=O)N1CCC[C@@H]1C(=O)N1CCC[C@H]1C(=O)N[C@@H](CCC(C)C)C(=O)N2` [Ex. 100] (HELM PEPTIDE1{[CC(C)CC[C@H](N[*:1])C(=O)[*:2]].C.T.A.S.I.P.P.Q.C.Y.[dP].P}$PEPTIDE1,PEPTIDE1,2:R3-10:R3|PEPTIDE1,PEPTIDE1,1:R1-13:R2$$$V2.0) registered a Cytotoxicity LC50/GI50 Hela cells in data set [1] of 83 µM.
In the case of `CC[C@H](C)[C@@H]1NC(=O)[C@@H]2CCCN2C(=O)[C@H]2CCCN2C(=O)[C@H](Cc2ccc(O)cc2)NC(=O)[C@@H]2CSSC[C@H](NC1=O)C(=O)N[C@@H]([C@@H](C)O)C(=O)N[C@@H](C)C(=O)N[C@@H](CO)C(=O)N[C@@H](CC(C)C)C(=O)N1CCC[C@H]1C(=O)N1CCC[C@H]1C(=O)N[C@@H](Cc1ccc(O)cc1)C(=O)N2` [Ex. 114] (HELM PEPTIDE1{I.C.T.A.S.L.P.P.Y.C.Y.[dP].P}$PEPTIDE1,PEPTIDE1,2:R3-10:R3|PEPTIDE1,PEPTIDE1,1:R1-13:R2$$$V2.0), the Cytotoxicity LC50/GI50 Hela cells in data set [1] stood at 34 µM. Also, the midpoint of inhibition in data set [2], the IC50, lay at 0.047 µM.
In the case of `CC[C@H](C)[C@@H]1NC(=O)[C@@H]2CCCN2C(=O)[C@@H]2CCCN2C(=O)[C@H](CC(=O)O)NC(=O)[C@H]([C@H](C)O)NC(=O)[C@H](CCCCN)NC(=O)[C@H]([C@@H](C)O)NC(=O)[C@@H]2CSSC[C@H](NC1=O)C(=O)N[C@@H](CO)C(=O)N1CCC[C@@H]1C(=O)N1CCC[C@H]1C(=O)N[C@@H](Cc1ccccc1)C(=O)N2` [Ex. 24] (HELM PEPTIDE1{F.C.T.K.[C[C@H](O)[C@H](N[*:1])C(=O)[*:2]].D.P.P.I.C.S.[dP].P}$PEPTIDE1,PEPTIDE1,2:R3-10:R3|PEPTIDE1,PEPTIDE1,1:R1-13:R2$$$V2.0), the Cytotoxicity LC50/GI50 Hela cells in data set [1] stood at 99 µM. In data set [4], the “Tryptase at 100 μM %” value is reported as 0%.
